From PMC6044556 (ACS Omega, 2017) come the findings set out here.

One data set deals with mice. The experiment in a line: Behavior of the mice after injection. It counts as in vivo, mice (Kunming). The conditions noted are these: intravenous injection, GABA 50 mg/kg or GABA–CPP 10 mg/kg, symptom with GABA–CPP appeared a bit worse.
The nature of data set [1]: GABA–CTP BBB penetration experiment: GABA in plasma of mice by LC–MS. The format is in vivo, mice (Kunming). To be noted: male mice, one bolus intravenous injection via tail vein (GABA 50 mg/kg, GABA–CPP 10 mg/kg).

As for `NCCCC(=O)O` [GABA, γ-aminobutyric acid], in the data set with mice, the “behavior of the mice after injection” value was “quiet and sleepy behavior”. Besides, in data set [1], the “GABA concentration in plasma within 2 min after injection” value is given as 7985 ng/mL and the “GABA concentration in plasma within 1 h after injection” value is reported as 141 ng/mL.
